Measurements reported in patent US20250109120A1, “INDOLINE DERIVATIVES FOR TREATMENT AND/OR PREVENTION OF TUMOR OR CELL PROLIFERATIVE AND FIBROSIS DISEASES” (NATIONAL TAIWAN UNIVERSITY, priority 2023, published 2025).

Key:
A549 cells [1] = assay: TGF-β1-induced EMT protein expression, western blot; format: cell-based, human; conditions: test compounds 2 μM, senexin A 5 μM, pirfenidone 1 mM; TGF-β1 10 ng/mL
Method: FIGS. 4A-4B show the inhibition of epithelial-to-mesenchymal transition protein expressions by CDK8 inhibitors in human alveolar epithelial cells. […] Cell lysates were subjected to a Western blot analysis using the indicated antibodies. Results are shown as the mean t SEM from three independent experiments. *p<0.05, and ***p<0.001 compared to the control group; #p<0.05, ##p<0.01, and ###p<0.001 compared to the TGF-β1-treated group. […] Cell viabilities were determined by an MTT assay. Results are shown as the mean t SEM of three independent experiments.
(§1) Cells (106) were incubated for 10 min at 4° C. in lysis buffer (20 mM HEPES at pH 7.4, 2 mM EGTA, 50 mM β-glycerophosphate, 0.1% Triton X-100, 10% glycerol, 1 mM DTT, 1 μg/mL of leupeptin, 5 μg/mL of aprotinin, 1 mM phenylmethylsulfonyl fluoride, and 1 mM sodium orthovanadate), scraped off, incubated on ice for an additional 10 min, and centrifuged at 17,000 g for 30 min at 4° C. Protein samples (20 μg) were then electrophoresed on SDS-polyacrylamide gel electrophoresis (PAGE) gels and transferred to a nitrocellulose membrane, which was then blocked by incubation for 30 min at room temperature with 5% bovine serum albumin (BSA) in Tris-buffered saline with 0.1% Tween-20 (TBST). Immunoblotting was performed by overnight incubation at 4° C. with primary antibodies in TBST, followed by incubation for 1 h at room temperature with horseradish peroxidase (HRP)-conjugated secondary antibodies. Bound antibodies were measured using enhanced chemiluminescence (ECL) reagent (GE Healthcare, UK) and exposed to photographic film.

CDK8 = CDK8 (Homo sapiens (Human), UniProt P49336); conditions: commercial CDK8 inhibitor; cited from earlier work
CDK8, sequence (P49336 whole entry, looked up, species assumed): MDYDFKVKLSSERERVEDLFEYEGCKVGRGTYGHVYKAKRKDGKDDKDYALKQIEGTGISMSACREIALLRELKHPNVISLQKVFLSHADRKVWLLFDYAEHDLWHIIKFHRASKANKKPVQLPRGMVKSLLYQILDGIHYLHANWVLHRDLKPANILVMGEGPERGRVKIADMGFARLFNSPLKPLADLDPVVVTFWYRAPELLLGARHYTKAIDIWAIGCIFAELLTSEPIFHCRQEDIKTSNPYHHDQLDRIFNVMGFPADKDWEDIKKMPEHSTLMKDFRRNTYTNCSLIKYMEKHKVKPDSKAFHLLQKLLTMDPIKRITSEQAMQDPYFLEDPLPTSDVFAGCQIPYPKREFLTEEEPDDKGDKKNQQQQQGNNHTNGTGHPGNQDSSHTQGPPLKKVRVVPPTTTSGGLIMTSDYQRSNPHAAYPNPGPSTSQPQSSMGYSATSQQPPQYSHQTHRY
CDK8, sequence (P24863 whole entry partner, looked up, species assumed): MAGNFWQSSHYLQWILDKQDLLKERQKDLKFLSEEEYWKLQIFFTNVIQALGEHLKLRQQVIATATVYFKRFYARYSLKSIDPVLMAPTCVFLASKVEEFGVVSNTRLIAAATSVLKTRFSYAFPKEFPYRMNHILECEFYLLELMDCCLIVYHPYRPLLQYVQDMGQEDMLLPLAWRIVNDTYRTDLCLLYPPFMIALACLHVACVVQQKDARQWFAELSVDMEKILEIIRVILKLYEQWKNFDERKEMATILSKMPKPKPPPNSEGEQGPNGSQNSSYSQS

A549 cells [2] = assay: Nuclear p-Smad3 T179 and RNA polymerase II pS2/S5 after TGF-β1, fractionation and western blot; format: cell-based, human; conditions: compound k 5 μM, senexin A 5 μM, pirfenidone 1 mM; TGF-β1 10 ng/ml 3 h
Method: FIGS. 8A-8B show the inhibitory effects of cellular distributions of TGF-β1-induced p-Smad3 T179, RNA polymerase II pS2/S5, and Smad3 after treatment with compound k. Human alveolar epithelial A549 cells were incubated with compound k (5 μM), senexin A (5 μM), or pirfenidone (1 mM) for 1 h, followed by stimulation with TGF-β1 (10 ng/ml) for 3 h. Protein expressions in the cytoplasmic and nuclear fractions were subjected to a Western blot analysis using the indicated antibodies. α-Tubulin and histone H3 served as loading controls for the cytoplasmic and nuclear fractions, respectively. Results are shown as the mean±SEM of three independent experiments. **p<0.01 and ***p<0.001 compared to the control group; #p<0.05 and ##p<0.01 compared to the TGF-β1-treated group.
as §1
A Nuclear/Cytosol Fractionation Kit (Biovision, USA) was used to separate the cytosolic and nuclear fractions. […]

DU145 cells = assay: LiCl-induced β-catenin signaling, western blot; format: cell-based, human; conditions: LiCl 20 mM; senexin A 10 μM
Method: Inhibitory phosphorylation of GSK3β was evaluated through western blotting. […] Whole-cell lysates were subjected to western blotting with the indicated antibodies. FIGS. 11J-11K show the comparison of basal activities of the Akt/GSK3β axis between PC-3 and DU145 cells. […] The results are shown as the mean±SEM from at least three independent experiments (*p<0.05, **p<0.01, ***p<0.001 vs. control group; #p<0.05, ##p<0.01, and ###p<0.001 vs. relevant control).
The cells were incubated in lysis buffer for 10 min at 4° C., scraped off, incubated on ice for an additional 10 min and then centrifuged at 17,000 g for 30 min at 4° C. Protein samples were electrophoresed on SDS-PAGE gels, transferred to PVDF membranes and blocked with 5% fat-free milk in PBS for 30 min at room temperature. Immunoblotting was performed overnight with primary antibodies in PBS at 4° C., followed by incubation with HRP-conjugated secondary antibodies for 1 h at room temperature. Bound antibodies will be measured using an ECL reagent and exposed to a photographic film. In the immunoprecipitation assay, cell lysates were immunoprecipitated with 1 μg of antibody and A/G agarose beads overnight at 4° C. After washing the precipitated beads three times with 1 mL ice-cold cell lysis buffer, bound immune complexes were separated by 10% SDS-PAGE and analyzed with immunoblotting.

For `N#Cc1ccc2ncnc(NCCc3ccccc3)c2c1` [Senexin A, reference compound], the “TGF-β1-triggered EMT protein expressions” value (A549 cells [1]) is given as “slight inhibition”, the IC50 (CDK8) is given as 280 nM and the “phosphorylation of p-Smad3 T179 and RNA Pol II pSer2/5” value (A549 cells [2]) is given as “less-potent inhibition”. For the same molecule, the “levels of active form of β-catenin and Snail” value (DU145 cells) was “reduced the levels”.
